Where two headings read alike, the source gives them in different places.
Assays:
[1] = system: Coxsackie B5; experiment: plaque-reduction test, Coxsackie B5; format: cell-based; conditions: twenty micrograms per milliliter, on the order of, read-out: Percentage PFU compared with control at 100%
Description: (§1) The compounds of the invention are active in the plaque-reduction test, a standard test for determining antiviral activity and potency, as already stated. One such standard direct plaque assay is that described by E. C. Herrmann Jr. et al., Proc. Soc. Exptl. Biol. Med. 103, 625 […]. This is the test procedure first employed and its principle is well established. It involves the following: Tissue culture cells are grown in small wells as monolayers and infected with appropriate virus dilutions. They are then overlayed with semisolid media to prevent spreading of the viral progeny to originally-uninfected cells. From the infected cells alone, foci of secondary infections develop within three (3) days, and these can be visualized as plaques after appropriate staining according to well-known procedure. To determine the inhibitory effect of a compound, the compound is administered directly onto the infected cells prior to the addition of the overlay, and the virus yield is then compared with the yield from untreated infected cell cultures. The percentage of plaque reduction or inhibition is then expressed in comparison with the 100% plaque-forming units (PFU) as taken from the uninhibited control.
(§2) When compared with the uninhibited control, plaque reduction with a compound of the invention at twenty micrograms per milliliter was on the order of the following: […]

[2] = system: HSV-I; experiment: plaque-reduction test, HSV-I; format: cell-based; conditions: Human alphaherpesvirus 1, twenty micrograms per milliliter, on the order of, read-out: Percentage PFU compared with control at 100%
Description: as §1, §2

[3] = system: HSV-I-ISO 3; experiment: plaque-reduction test, HSV-I-ISO 3; format: cell-based; conditions: twenty micrograms per milliliter, on the order of, read-out: Percentage PFU compared with control at 100%
Description: as §1, §2

[4] = system: HSV-I-WA; experiment: plaque-reduction test, HSV-I-WA; format: cell-based; conditions: twenty micrograms per milliliter, on the order of, read-out: Percentage PFU compared with control at 100%
Description: as §1, §2

[5] = system: HSV II-HG-52; experiment: plaque-reduction test, HSV II-HG-52; format: cell-based; conditions: twenty micrograms per milliliter, on the order of, read-out: Percentage PFU compared with control at 100%
Description: as §1, §2

[6] = system: HSV I-ISO 6; experiment: plaque-reduction test, HSV I-ISO 6; format: cell-based; conditions: twenty micrograms per milliliter, on the order of, read-out: Percentage PFU compared with control at 100%
Description: as §1, §2

[7] = system: VSV; experiment: microbe, parasite or virus in culture; format: cell-based; conditions: Vesicular stomatitis virus, read-out: Percentage PFU compared with control at 100%
[8] = system: HSV-I-A NG; experiment: plaque-reduction test, HSV-I-A NG; format: cell-based; conditions: 5.5 micrograms/ml, on the order of, read-out: Percentage PFU compared with control at 100%
Description: as §1, §2

[9] = system: same viral strain; experiment: refined plaque reduction assay; format: cell-based; conditions: read-out: IC50 (50% reduction in plaque forming units)
[10] = system: selected herpes viruses; experiment: resistance development test; format: cell-based; conditions: prolonged suboptimal concentrations, manifold passage
[11] = system: transformed hamster cells; experiment: reversion of transformed hamster cells (FIG. 3); format: cell-based; conditions: 20 micrograms per milliliter
Text: FIG. 3 is a graph showing the reversion of transformed malignant phenotype cells shown in FIG. 1, i.e., transformed hamster cells which produce tumors in the animal, to phenotypically normal or flat revertant cells of the type shown in FIG. 2, which reversion was accomplished by a transient treatment of the malignant cells in tissue culture medium with twenty (20) micrograms per milliliter of a compound of the invention, in this case the compound D609, for three (3) succeeding passages, the period of each passage having a duration of one week. In the graph, the empty circles depict untreated cultures, whereas the solid circles depict […].

[12] = system: skin tumors; experiment: skin tumor prevention experiment in mice; format: in vivo
Text: In tumor-prevention experiments, the compounds of the present invention are found to prevent tumors in animals. In a representative carcinogenesis experiment, skin tumors are induced in mice according to the procedure of G. Fuerstenberger, D. L. Berry, B. Sorg, and F. Marks, "Skin Tumor Promotion by Phorbol Ester a Two-Stage Process", Proc. Natl. Acad. Sci., USA 78, 7722-7726 (1981). In replicate experiments, conducted under closely controlled conditions, and with identical strains of mice, seventeen (17) out of eighteen (18) animals in the control group developed skin tumors after a period of three (3) months. […] In the case of the treated animals, only one (1) out of the eighteen (18) animals developed a discernible skin tumor.

[13] = system: primate (monkey) cells transformed by human brain tumor (oligodendroglioma) DNA; experiment: Low Serum Test
Description: Normal cells fail to grow under these conditions.
In this test, as a tissue culture, primate (monkey) cells are used which have acquired the transformed phenotype after exposure of the cells to human brain tumor (oligodendroglioma) genetic substance (DNA). A genetically-homogeneous transformed tissue culture (a clonal line) is exposed to forty (40) micrograms per milliliter of the test compound for a period of four (4) days. Parallel cultures are maintained during the treatment.
After the transient exposure to the drug, the cells are suspended in drug-free medium (at pH 7.2) containing ten percent (10%) serum, or in low-serum (0.5%).

[14] = system: numerous different representative virus types; experiment: antiviral activity, plaque-reduction tests against numerous virus types; format: cell-based; conditions: in words
[15] = system: transformed (tumor) cells; experiment: antitumor activity (general statement); format: cell-based; conditions: in words
Text: The compounds of the present invention, and pharmaceutical compositions containing the same, display a drastic influence on the growth patterns and on the morphological appearance of various experimentally-transformed cells in tissue culture while, at the same time, not influencing these properties of normal cell cultures.

[16] = system: Influenza A2; experiment: plaque inhibition test, influenza; format: cell-based; conditions: Substance concentration: 200γ/0,02 ml; 1% solution; chick fibroblasts
[17] = system: Vaccine virus; format: cell-based; conditions: Substance concentration: 200γ/0,02 ml; 1% solution; chick fibroblasts
[18] = system: Herpes virus; experiment: plaque inhibition test, herpes; format: cell-based; conditions: Substance concentration: 200γ/0,02 ml; 1% solution; human amnion cells
[19] = system: Herpes simplex virus (HSV-I, especially strain HSV-I-ISO 3); experiment: plaque-reduction assay, Herpes simplex virus; format: cell-based; conditions: Human alphaherpesvirus 1
[20] = system: various virus strains; experiment: in-vitro plaque reduction test; format: cell-based; conditions: 20 γ/ml
[21] = system: Herpes virus; conditions: two immunosuppressed patients; Burns et al., The Lancet, Feb. 20, 1982; cited from earlier work
[22] = refined procedure, same pH and environmental conditions, same viral strain

For S=C(S)OC1CC2CC1C1CCCC21 (stereo not drawn) [Example 7, Potassium 8(9)tricyclo[5.2.1.0^2,6]decyl xanthate], the activity at 20 µg/mL [1] was 4%, the activity at 20 µg/mL [2] was 2.5% and the activity at 20 µg/mL [3] was 1.05%. It also gave an activity at 20 µg/mL [4] of 0.9%, an activity at 20 µg/mL [5] of 0.3% and an activity at 20 µg/mL [6] of 0.1%. It also gave an activity at 20 µg/mL [7] of 0.05%, an activity at 5.5 µg/mL [8] of 0.1% and an IC50 [9, 22] of 3 mg/L. The development of resistance [10] was “under no conditions was resistance found to have developed”, the “loss of the transforming tumor producing genomes” value ([11]; three passages) was “permanent loss of the transforming tumor producing genomes” and the “reversion of transformed phenotype” value ([11]; three succeeding passages of one week each) was “disappearance of the transformed colonies or cells and their conversion into phenotypically normal or flat revertant cells”. For the same compound, the “animals that developed a discernible skin tumor” value ([12]; epicutaneous, 3 micrograms per milliliter in acetone, twice weekly for 3 months, control 17 of 18) was 1 out of the eighteen (18) animals, the development of tumors ([12]; in words) was “almost completely impeded” and the “pH dependence of antiviral activity” value ([13]; pH 6.8 compared with 7.25-7.8) was “most effectively at a pH of 6.8”.
In the case of CC1(C)C2CCC1(C)C(C1CCCCC1OC(=S)S)C2 (stereo not drawn), the “antiviral activity (relative to reference compound)” value [14] is reported as “essentially the same antiviral and antitumor activity as D622” and the “antitumor activity (relative to reference compound)” value [15] is reported as “essentially the same antiviral and antitumor activity as D622”.
With S=C(S)O[C@H]1C[C@H]2CC[C@@H]1C2 (relative stereo) [Example 9, Sodium 2-endo-bicyclo [2.2.1^1,4]-heptyl xanthate] the “Virustatic properties Influenza (inhibition areola)” value [16] was “++ (good (IA 20-30 mm))”, the “Virustatic properties Vaccine (inhibition areola)” value [17] was “+++ (very good (IA > 30 mm))” and the “Virustatic properties Herpes (inhibition areola)” value [18] was “+++ (very good (IA > 30 mm))”. For the same compound, the “antiviral activity (relative to reference compound)” value [14] was “essentially the identical antiviral and antitumor activity as the corresponding potassium salt (D611)” and the “antitumor activity (relative to reference compound)” value [15] was “essentially the identical antiviral and antitumor activity as the corresponding potassium salt (D611)”.
With CC1(C)C2CCC1(C)C(C1CCC(OC(=S)S)CC1)C2 (stereo not drawn) [Example 10, Potassium 4(or para)-isobornylcyclohexyl xanthate] the IC50 [19] was 1.9 mg/L, the “antiviral activity (relative to reference compound)” value [14] was “essentially identical with that for the compound D609, but somewhat superior thereto” and the “antitumor activity (relative to reference compound)” value [15] was “essentially identical with that for the compound D609, but somewhat superior thereto”.
With CCCCCCOC(=S)[S-].[Na+] [sodium n-hexyl xanthate] the “virustatic / antiviral activity” value [14] was “active virustatic agents”.
In the case of Cl.NC12CC3CC(CC(C3)C1)C2 [1-Aminoadamantane hydrochloride, reference compound], the “Virustatic properties Influenza (inhibition areola)” value [16] is reported as “+++ (very good (IA > 30 mm))”, the “Virustatic properties Vaccine (inhibition areola)” value [17] is reported as 0 and the “Virustatic properties Herpes (inhibition areola)” value [18] is reported as 0. It also gave an inhibition at 20 µg/mL [20] of 10%.
With S=C(S)OC12CC3CC(CC(C3)C1)C2 [Example 5, Potassium adamantyl xanthate] the “Virustatic properties Influenza (inhibition areola)” value [16] was “+ (moderate (IA 10-20 mm))”, the “Virustatic properties Vaccine (inhibition areola)” value [17] was “+ (moderate (IA 10-20 mm))” and the “Virustatic properties Herpes (inhibition areola)” value [18] was “+ (moderate (IA 10-20 mm))”. The IC50 [9, 22] was over 10 mg/L.
In the case of Nc1nc2c(ncn2COCCO)c(=O)[nH]1 [Acyclovir], the “susceptibility of herpes virus mutants arising under treatment” value [21] is listed as “considerably less susceptible to treatment with that particular drug than the initially-recognized virus”.
For S=C(S)O[C@@H]1C[C@H]2CC[C@@H]1C2 (relative stereo) [Example 8, Potassium 2-exo-bicyclo[2.2.1^1,4]-heptyl xanthate], the “IC50 values (relative to D611)” value [14] was “essentially identical with those of the compound D611, including IC50 values”, the “antiviral activity (relative to reference compound)” value [14] was “essentially identical with those of the compound D611” and the “antitumor activity (relative to reference compound)” value [15] was “essentially identical with those of the compound D611”.
With S=C(S)OCc1ccccc1 [Example 2, Sodium benzyl xanthate] the “Virustatic properties Influenza (inhibition areola)” value [16] was “+ (moderate (IA 10-20 mm))”, the “Virustatic properties Vaccine (inhibition areola)” value [17] was “+ (moderate (IA 10-20 mm))” and the “Virustatic properties Herpes (inhibition areola)” value [18] was “+ (moderate (IA 10-20 mm))”. The IC50 [9, 22] was over 30 mg/L.
For CCCCCCCCCCCCOC(=S)[S-].[Na+] [n-Dodecyl Na, Sodium dodecyl xanthate], the “Virustatic properties Influenza (inhibition areola)” value [16] was “+++ (very good (IA > 30 mm))”, the “Virustatic properties Vaccine (inhibition areola)” value [17] was “+++ (very good (IA > 30 mm))” and the “Virustatic properties Herpes (inhibition areola)” value [18] was “+++ (very good (IA > 30 mm))”. It also gave an inhibition at 20 µg/mL [20] of 100% and an IC50 [9, 22] of 7 mg/L.
In the case of S=C([S-])OC1CCCCCCCCCCC1.[Na+] [Example 1, Sodium cyclododecyl xanthate], the “Virustatic properties Influenza (inhibition areola)” value [16] is reported as “+++ (very good (IA > 30 mm))”, the “Virustatic properties Vaccine (inhibition areola)” value [17] is reported as “+++ (very good (IA > 30 mm))” and the “Virustatic properties Herpes (inhibition areola)” value [18] is reported as “+++ (very good (IA > 30 mm))”. The inhibition at 20 µg/mL [20] was 100%, the IC50 [9, 22] was 2.5 mg/L and the development of resistance [10] was “under no conditions was resistance found to have developed”. The “variability of antitumor effectiveness with environment and pH (relative to D609)” value [13] was “somewhat less variable with environment and pH than in the case of the compound D609”.
With CCCCCCOC(=S)[S-].[K+] [potassium n-hexyl xanthate] the “virustatic / antiviral activity” value [14] was “active virustatic agents”.
For S=C(S)O[C@H]1C[C@H]2CC[C@@H]1C2 (relative stereo) [Example 6, Potassium 2-endo-bicyclo[2.2.1^1.4]-heptyl xanthate], the IC50 [9] was 3 mg/L, the development of resistance [10] was “under no conditions was resistance found to have developed” and the “variability of antitumor effectiveness with environment and pH (relative to D609)” value [13] was “somewhat less variable with environment and pH than in the case of the compound D609”.
With S=C([S-])OC1CCCCC1.[Na+] [Example 3, Sodium cyclohexyl xanthate] the “Virustatic properties Influenza (inhibition areola)” value [16] was “++ (good (IA 20-30 mm))”, the “Virustatic properties Vaccine (inhibition areola)” value [17] was “+++ (very good (IA > 30 mm))” and the “Virustatic properties Herpes (inhibition areola)” value [18] was “+++ (very good (IA > 30 mm))”. For the same compound, the inhibition at 20 µg/mL [20] was 100% and the IC50 [9, 22] was 9.5 mg/L.

Source: patent publication US4981869A, “Xanthates as antitumor agents” (priority 1980, dated 1991)
